Measurements from patent US9833487B2, “Composition for preventing and treating arthritic diseases” (priority 2008, dated 2017).

Experiments:
[1] = system: proteoglycan mRNA in cartilage tissue; assay: Gene expression of proteoglycan (RT-PCR); assay type: cell-based, human; settings: IL-1α treated cartilage tissue; FIG. 13
Experimental: (§1) The joint cartilage of human was provided from the patient who had taken artificial joint surgery (Orthopedics Surgery Dep. of Kyunghee Medical Center). […] The tissue was washed with the medium several times and then the articular tissue was cultured at 37° C. in humidified […] incubator. 1 or 2 days after the incubation, the medium was replaced with new basic medium containing inactivated 5% fetal bovine serum with heat treatment, 10 mM HEPES, and 100 unit/ml of penicillin-streptomycin, and 30 mg of the chondrocyte was transferred to 48-well plate. After culturing for 1 hour, 5 ng/μl of interleukin-1α (IL-1α, R&D system, USA) was added to the medium to induce inflammation and various concentrations of test sample (KM-1), ETCP (SK Chemicals), Celecoxib (CEL, Pfizer Co., USA), and Glucosamine (GLUCO, Sigma Co., USA), i.e., 0.1, 0.2, and 0.4 mg/ml, were added thereto respectively. […] The stained product was washed for 10 minutes with distilled water and the result was determined at UV wavelength (260 nm). The expression of proteoglycan and Col II gene collected from the cartilage tissue and chondrocytic cell of rabbit in above Reference Example 3 was determined and the test was performed by using reverse transcription polymerase chain reaction (RT-PCR) with the method disclosed in Reference Example 4.

[2] = system: MMP-13 (collagenase-13); assay: MMP-13 activity in human cartilage tissue medium; assay type: cell-based; settings: FIG. 14
Experimental: (§2) The joint cartilage of human was provided from the patient who had taken artificial joint surgery (Orthopedics Surgery Dep. of Kyunghee Medical Center). […] The tissue was washed with the medium several times and then the articular tissue was cultured at 37° C. in humidified […] incubator. 1 or 2 days after the incubation, the medium was replaced with new basic medium containing inactivated 5% fetal bovine serum with heat treatment, 10 mM HEPES, and 100 unit/ml of penicillin-streptomycin, and 30 mg of the chondrocyte was transferred to 48-well plate. After culturing for 1 hour, 5 ng/μl of interleukin-1α (IL-1α, R&D system, USA) was added to the medium to induce inflammation and various concentrations of test sample (KM-1), ETCP (SK Chemicals), Celecoxib (CEL, Pfizer Co., USA), and Glucosamine (GLUCO, Sigma Co., USA), i.e., 0.1, 0.2, and 0.4 mg/ml, were added thereto respectively. […] In order to measure proteolytic activity, each 25 μl of medium was added to 96-well plate with 50 μl of the substrate to incubate at 37° C. for 1 hr and the optical density was measured by ELISA reader (Molecular devices, USA) at 450 nm. The activity of each sample on MMP-1 and MMP-13 was determined by calculating the MMP (%) of medium in each well.

[3] = system: MMP-1 (collagenase-1); assay: MMP-1 activity in human cartilage tissue medium; assay type: cell-based; settings: FIG. 15
Experimental: as §2

[4] = system: pp 38; assay: MAPK phosphorylation (western blot), pp38; assay type: cell-based, human; settings: FIG. 18
[5] = system: GAG degradation in human articular cartilage tissue; assay: Dissociation of glycosaminoglycan (DMB assay), IL-1α induced cartilage tissue; assay type: cell-based; settings: 0.1, 0.2, 0.4 mg/ml, FIG. 12
Experimental: The joint cartilage of human was provided from the patient who had taken artificial joint surgery (Orthopedics Surgery Dep. of Kyunghee Medical Center). […] The tissue was washed with the medium several times and then the articular tissue was cultured at 37° C. in humidified […] incubator. 1 or 2 days after the incubation, the medium was replaced with new basic medium containing inactivated 5% fetal bovine serum with heat treatment, 10 mM HEPES, and 100 unit/ml of penicillin-streptomycin, and 30 mg of the chondrocyte was transferred to 48-well plate. After culturing for 1 hour, 5 ng/μl of interleukin-1α (IL-1α, R&D system, USA) was added to the medium to induce inflammation and various concentrations of test sample (KM-1), ETCP (SK Chemicals), Celecoxib (CEL, Pfizer Co., USA), and Glucosamine (GLUCO, Sigma Co., USA), i.e., 0.1, 0.2, and 0.4 mg/ml, were added thereto respectively. […] The concentration of GAG in the culture medium of cartilage tissue incubated with the procedure disclosed in Reference Example 3 was measured by determining the amount of polyanionic substance produced by being reacted with blyscan dye solution and chondroitin sulfate was used as a standard. […] The amount of spectroscopic GAG was determined at 540 nm and the inhibition rate was expressed based on the amount of degradated GAG induced by interleukin-1α (IL-1α).

[6] = system: pERK; assay: MAPK phosphorylation (western blot), pERK; assay type: cell-based, human; settings: FIG. 18
[7] = system: type II collagen mRNA in cartilage tissue; assay: Gene expression of Col II (RT-PCR); assay type: cell-based, human; settings: IL-1α treated cartilage tissue; FIG. 13
Experimental: as §1

[8] = system: pJNK; assay: MAPK phosphorylation (western blot), pJNK; assay type: cell-based, human; settings: FIG. 18

For O=C(/C=C/c1ccc(O)c(O)c1)O[C@@H]1C[C@](O)(C(=O)O)C[C@@H](O)[C@H]1O [chlorogenic acid], the “mRNA gene expression of proteoglycan” value [1] was “increased mRNA gene expression of proteoglycan and type II collagen”, the “inhibition of MMP-13 activity” value [2] was “significantly inhibited the activity of collagenase MMP-1 and MMP-13 in a dose dependent manner” and the “inhibition of MMP-1 activity” value [3] was “significantly inhibited the activity of collagenase MMP-1 and MMP-13 in a dose dependent manner”. The “inhibition of pp 38” value [4] was “potently inhibited”, the “inhibition of the degradation of GAG” value [5] was “potently inhibited the degradation of GAG” and the “inhibition of pERK” value [6] was “inhibited the activity of pERK”. For the same compound, the “mRNA gene expression of type II collagen” value [7] was “increased mRNA gene expression of proteoglycan and type II collagen” and the “inhibition of pJNK” value [8] was “potently inhibited”.
